Reference: patent US20210299282A1, “Device for Collecting and Culturing Fish Embryos and Method for Evaluating Combined Toxicity of Thiamethoxam and Tetraconazole” (priority 2020, published 2021)
≈ marks a conversion by molar mass, not a printed value.

What was measured:
[1] = Toxicity test for single pesticide on zebrafish embryos (96 h semi-static exposure); format: in vivo, Zebrafish (Danio rerio); settings: zebrafish, in vivo; after 96 hours of exposure; single pesticide; embryos exposed from 3 hpf; read-out: LC50 and 95% confidence limits for zebrafish embryos when used alone
Procedure: (§1) S1: The embryo culture component 3 is assembled; toxicity exposure is performed after 3 hours post-fertilization (3 hpf) of embryos; after collecting the zebrafish embryos for 3 hours, the abnormal and dead embryos are removed, and the normally divided embryos are picked out under an inverted microscope, and the selected embryos are loaded in into the culture well 34 in an amount of 10 embryos per well; after removing the water as much as possible, 10 mL of single pesticide solution with different concentrations are added to each well in the treatment group separately, and an equal volume of standard dilution water is added to the blank control group and the solvent control group, respectively. Three replicates are set for each treatment group, blank control group and solvent control group, and every 2 wells are served as one replicate, that is, 20 embryos are one replicate. Each test pesticide is set with 5 to 7 concentrations using serial dilution method with a geometrical ratio, and each concentration is set with three repeats.
(§2) S2: The semi-static method is used, that is, the medium in the wells are replaced with fresh pesticide solution every 24 hours, and the dead embryos are picked out in time. When the medium is replaced with the fresh pesticide solution, the top plate 32 is pulled up, the original culture medium flows through the leakage hole 35 into the cavity of the cavity plate 31, and then the original culture medium is poured out together. Then, the top plate 32 is mounted on the cavity plate 31, and the fresh pesticide solution is added to the culture well 34 loaded with embryos.
(§3) S3: After 96 hours of toxicity exposure, the embryo mortality and poisoning symptoms are recorded. Embryo death was characterized by egg coagulation, somite disruption, non-detachment of tail or lack of heartbeat; common symptoms of embryo poisoning include the following deformities: egg coagulation, pericardial edema, yolk sac edema, spine curvature, tail bending, and others (FIG. 5). The mortality M is calculated according to the formula (I),
(§4) In formula (I), D is the number of dead embryos and N is the total number of embryos. DPS statistical analysis software (version number: V15.10) is used to statistically analyze the mortality data of zebrafish embryos with the probabilistic value analysis method, and the 50% lethal concentration LC50 and 95% confidence limits of the fish embryos are calculated.

[2] = tested on: zebrafish embryos; test: as above; format: in vivo, Zebrafish (Danio rerio); settings: single pesticide treatment group; 96 h exposure (tetraconazole: high concentration group)
Procedure: as §1, §2, §3, §4

Row | Compound | LC50 at 96 h [1] | poisoning symptoms of zebrafish embryos [2]
1 | FC(F)C(F)(F)OCC(Cn1cncn1)c1ccc(Cl)cc1Cl (stereo not shown) [tetraconazole] | 11 µg/mL (≈ 29.5 µM) | pericardial edema, yolk sac edema, spine curvature, tail bending, and others were observed
2 | CN1COCN(Cc2cnc(Cl)s2)/C1=N\[N+](=O)[O-] [thiamethoxam] | 246 µg/mL (≈ 844 µM) | not obvious
